For assay [1], the target named is Mitogen-activated protein kinase 8 (Homo sapiens, UniProt P45983). Description: Selectivity interaction (ActivX KiNativ screen (ex vivo kinase selectivity in human PBMCs)) EUB0001619a MAPK8. As to conditions: PBMC, at 1 µM. The assay is classed as cell-based.
Assay [2] deals with T1, cGMP-dependent protein kinase 2 (Homo sapiens) (UniProt Q13237).
T1 sequence (whole entry): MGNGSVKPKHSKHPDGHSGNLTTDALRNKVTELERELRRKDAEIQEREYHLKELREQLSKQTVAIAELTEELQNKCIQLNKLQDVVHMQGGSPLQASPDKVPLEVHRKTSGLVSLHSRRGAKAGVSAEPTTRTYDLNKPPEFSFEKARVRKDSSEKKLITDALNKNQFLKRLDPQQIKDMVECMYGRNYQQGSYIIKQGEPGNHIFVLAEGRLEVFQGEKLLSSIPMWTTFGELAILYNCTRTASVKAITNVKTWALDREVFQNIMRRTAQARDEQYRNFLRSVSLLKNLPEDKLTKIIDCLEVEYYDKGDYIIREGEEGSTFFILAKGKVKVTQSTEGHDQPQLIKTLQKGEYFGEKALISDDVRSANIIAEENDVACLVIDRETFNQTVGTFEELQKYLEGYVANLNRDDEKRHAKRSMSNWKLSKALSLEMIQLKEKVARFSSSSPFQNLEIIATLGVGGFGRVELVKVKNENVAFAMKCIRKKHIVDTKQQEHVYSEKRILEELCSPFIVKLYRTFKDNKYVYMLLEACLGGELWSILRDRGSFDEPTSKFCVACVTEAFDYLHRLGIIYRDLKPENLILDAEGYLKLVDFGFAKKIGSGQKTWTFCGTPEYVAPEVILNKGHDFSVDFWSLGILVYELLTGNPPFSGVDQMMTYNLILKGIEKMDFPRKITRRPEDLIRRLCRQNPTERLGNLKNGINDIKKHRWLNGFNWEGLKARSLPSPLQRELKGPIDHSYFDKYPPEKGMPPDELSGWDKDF
Description: Selectivity interaction (KinomeScan (DiscoverX)) EUB0001619a PRKG2. As to conditions: at 1 µM.

Assay [3] concerns the target T2, Calcium/calmodulin-dependent protein kinase type IV (Homo sapiens) (UniProt Q16566).
T2 sequence (whole entry): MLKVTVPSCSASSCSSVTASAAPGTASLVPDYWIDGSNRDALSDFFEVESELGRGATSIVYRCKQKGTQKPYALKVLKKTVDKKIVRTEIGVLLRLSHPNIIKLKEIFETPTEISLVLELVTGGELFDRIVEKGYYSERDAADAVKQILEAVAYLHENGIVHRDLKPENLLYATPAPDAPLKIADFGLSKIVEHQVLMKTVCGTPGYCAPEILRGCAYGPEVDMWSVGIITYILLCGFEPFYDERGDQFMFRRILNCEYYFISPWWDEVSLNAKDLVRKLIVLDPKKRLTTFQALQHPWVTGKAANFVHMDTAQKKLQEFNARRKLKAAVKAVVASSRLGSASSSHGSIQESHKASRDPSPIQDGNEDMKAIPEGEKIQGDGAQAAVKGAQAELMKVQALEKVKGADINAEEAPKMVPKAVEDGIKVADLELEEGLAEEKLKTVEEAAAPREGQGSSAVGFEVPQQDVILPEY
As to conditions: at 10 µM.

For assay [4], the target named is Vascular endothelial growth factor receptor 3 (Homo sapiens, UniProt P35916). Nature of the assay: Selectivity interaction (SelectScreen profiling (Invitrogen)) EUB0000607a FLT4. As to conditions: at 2 µM.
Sequence of Vascular endothelial growth factor receptor 3 (P35916 whole entry): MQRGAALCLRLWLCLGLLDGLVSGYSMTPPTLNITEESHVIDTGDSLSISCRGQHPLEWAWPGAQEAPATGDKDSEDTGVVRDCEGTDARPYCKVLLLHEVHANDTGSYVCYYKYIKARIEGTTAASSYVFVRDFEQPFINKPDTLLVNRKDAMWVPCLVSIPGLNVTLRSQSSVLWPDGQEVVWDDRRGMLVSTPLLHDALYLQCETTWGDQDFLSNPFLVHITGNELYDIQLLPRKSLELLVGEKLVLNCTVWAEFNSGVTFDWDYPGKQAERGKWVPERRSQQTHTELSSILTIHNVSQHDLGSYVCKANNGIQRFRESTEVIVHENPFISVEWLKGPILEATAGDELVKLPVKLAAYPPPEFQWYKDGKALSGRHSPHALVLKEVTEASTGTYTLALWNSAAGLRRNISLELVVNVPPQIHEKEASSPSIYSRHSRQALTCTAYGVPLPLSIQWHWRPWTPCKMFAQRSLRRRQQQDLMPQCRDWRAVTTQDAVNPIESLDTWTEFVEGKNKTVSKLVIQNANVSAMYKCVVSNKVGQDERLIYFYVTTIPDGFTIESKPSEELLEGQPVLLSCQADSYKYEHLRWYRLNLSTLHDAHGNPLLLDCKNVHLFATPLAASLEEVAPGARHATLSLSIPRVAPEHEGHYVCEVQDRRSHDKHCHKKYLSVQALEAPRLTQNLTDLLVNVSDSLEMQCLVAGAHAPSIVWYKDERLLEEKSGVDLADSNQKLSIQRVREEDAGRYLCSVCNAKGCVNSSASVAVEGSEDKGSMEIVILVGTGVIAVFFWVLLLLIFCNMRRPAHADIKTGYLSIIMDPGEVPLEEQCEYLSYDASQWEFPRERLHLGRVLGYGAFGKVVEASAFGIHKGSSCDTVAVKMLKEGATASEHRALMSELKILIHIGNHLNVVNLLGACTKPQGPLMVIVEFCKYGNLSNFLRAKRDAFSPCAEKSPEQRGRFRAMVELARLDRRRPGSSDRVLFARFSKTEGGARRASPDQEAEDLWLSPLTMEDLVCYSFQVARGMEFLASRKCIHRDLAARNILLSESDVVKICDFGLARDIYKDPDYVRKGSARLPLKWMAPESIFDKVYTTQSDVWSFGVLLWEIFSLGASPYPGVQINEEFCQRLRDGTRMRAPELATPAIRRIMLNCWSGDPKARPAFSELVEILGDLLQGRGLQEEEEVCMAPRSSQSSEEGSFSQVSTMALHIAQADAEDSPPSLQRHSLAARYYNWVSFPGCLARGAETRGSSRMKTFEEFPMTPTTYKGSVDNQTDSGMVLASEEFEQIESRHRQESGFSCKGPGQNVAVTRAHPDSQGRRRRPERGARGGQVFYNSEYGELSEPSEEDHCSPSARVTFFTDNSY
Assay [5] concerns the target T3, Death-associated protein kinase 1 (Homo sapiens, UniProt P53355). Description: Selectivity interaction (KinomeScan (DiscoverX)) EUB0000607a DAPK1. As to conditions: at 10 µM.
For assay [6], the target named is T3, Death-associated protein kinase 1. Nature of the assay: Selectivity interaction (KinomeScan (DiscoverX)) EUB0000045b DAPK1.
The target of assay [7] is Mitogen-activated protein kinase kinase kinase 20 (Homo sapiens) (UniProt Q9NYL2). Description: Selectivity interaction (Ambit KINOMEscan and KiNATiv profiling in Jurkat cells) EUB0000090b MAP3K20. As to conditions: at 1 µM. The format is cell-based.
Sequence of Mitogen-activated protein kinase kinase kinase 20 (Homo sapiens) (Q9NYL2 2-800 limits assumed): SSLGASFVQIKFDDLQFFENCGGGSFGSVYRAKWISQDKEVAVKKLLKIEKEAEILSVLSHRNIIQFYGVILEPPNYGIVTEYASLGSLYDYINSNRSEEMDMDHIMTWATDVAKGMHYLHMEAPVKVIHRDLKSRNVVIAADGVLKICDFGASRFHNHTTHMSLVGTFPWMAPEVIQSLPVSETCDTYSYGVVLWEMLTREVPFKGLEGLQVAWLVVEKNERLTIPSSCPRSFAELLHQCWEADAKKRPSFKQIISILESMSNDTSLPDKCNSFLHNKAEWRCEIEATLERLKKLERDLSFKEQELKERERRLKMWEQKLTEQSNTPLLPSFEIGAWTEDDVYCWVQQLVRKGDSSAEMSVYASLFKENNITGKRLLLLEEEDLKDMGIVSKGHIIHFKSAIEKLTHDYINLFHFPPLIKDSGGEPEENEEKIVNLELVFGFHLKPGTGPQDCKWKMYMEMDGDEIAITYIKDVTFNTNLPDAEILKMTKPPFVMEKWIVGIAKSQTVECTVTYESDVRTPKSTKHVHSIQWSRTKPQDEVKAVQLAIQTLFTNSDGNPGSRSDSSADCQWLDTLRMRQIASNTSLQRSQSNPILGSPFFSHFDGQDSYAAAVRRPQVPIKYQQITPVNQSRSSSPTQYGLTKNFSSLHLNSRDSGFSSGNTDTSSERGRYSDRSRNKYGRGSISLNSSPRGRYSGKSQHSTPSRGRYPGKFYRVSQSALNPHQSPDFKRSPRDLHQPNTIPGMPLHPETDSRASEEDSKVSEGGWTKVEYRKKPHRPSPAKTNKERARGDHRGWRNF
Assay [8] concerns the target Bone morphogenetic protein receptor type-1B (Homo sapiens, UniProt O00238). Description: Selectivity interaction (Ambit KINOMEscan and KiNATiv profiling in Jurkat cells) EUB0000090b BMPR1B. The format is cell-based. As to conditions: at 1 µM.
Assay [9] deals with T4, Tyrosine-protein kinase TXK (Homo sapiens) (UniProt P42681).
T4 sequence (whole entry): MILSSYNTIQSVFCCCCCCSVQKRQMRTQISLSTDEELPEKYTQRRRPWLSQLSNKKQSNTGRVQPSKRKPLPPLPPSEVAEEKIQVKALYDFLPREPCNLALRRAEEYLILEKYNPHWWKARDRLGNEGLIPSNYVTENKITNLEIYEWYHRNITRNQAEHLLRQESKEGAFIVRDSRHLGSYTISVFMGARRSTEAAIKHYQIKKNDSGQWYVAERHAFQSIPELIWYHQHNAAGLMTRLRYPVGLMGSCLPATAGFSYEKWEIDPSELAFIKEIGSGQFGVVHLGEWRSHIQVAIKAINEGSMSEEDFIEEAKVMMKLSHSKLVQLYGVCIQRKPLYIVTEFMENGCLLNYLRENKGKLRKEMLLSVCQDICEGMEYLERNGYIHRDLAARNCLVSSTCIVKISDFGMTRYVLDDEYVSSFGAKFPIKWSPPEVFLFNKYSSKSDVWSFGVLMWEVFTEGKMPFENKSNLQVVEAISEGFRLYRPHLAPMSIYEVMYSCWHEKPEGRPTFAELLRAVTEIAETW
Nature of the assay: Selectivity interaction (KinomeScan (DiscoverX)) EUB0001049a TXK. As to conditions: at 1 µM.

The target of assay [10] is T5, 5-hydroxytryptamine receptor 3A (Homo sapiens) (UniProt P46098).
T5 sequence (whole entry): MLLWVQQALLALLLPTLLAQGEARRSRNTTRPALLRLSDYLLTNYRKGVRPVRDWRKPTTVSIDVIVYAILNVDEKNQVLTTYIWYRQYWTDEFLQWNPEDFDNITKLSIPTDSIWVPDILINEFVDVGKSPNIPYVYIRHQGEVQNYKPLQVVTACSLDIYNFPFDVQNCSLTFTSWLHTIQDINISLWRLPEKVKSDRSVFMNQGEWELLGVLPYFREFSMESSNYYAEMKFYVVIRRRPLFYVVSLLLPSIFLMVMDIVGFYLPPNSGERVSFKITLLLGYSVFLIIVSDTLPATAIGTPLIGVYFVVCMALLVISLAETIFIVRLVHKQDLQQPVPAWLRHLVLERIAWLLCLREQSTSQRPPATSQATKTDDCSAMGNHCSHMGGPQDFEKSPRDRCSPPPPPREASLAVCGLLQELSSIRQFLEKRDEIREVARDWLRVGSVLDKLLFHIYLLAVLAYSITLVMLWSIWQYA
Description: Selectivity interaction (Panel of non-epigenetic targets (kinases, GPCRs, ion channels, and transporters, Eurofins) ) EUB0000271b HTR3A. As to conditions: at 1 µM.

The structures appear in SMILES notation.

T3 sequence (P53355 whole entry, looked up): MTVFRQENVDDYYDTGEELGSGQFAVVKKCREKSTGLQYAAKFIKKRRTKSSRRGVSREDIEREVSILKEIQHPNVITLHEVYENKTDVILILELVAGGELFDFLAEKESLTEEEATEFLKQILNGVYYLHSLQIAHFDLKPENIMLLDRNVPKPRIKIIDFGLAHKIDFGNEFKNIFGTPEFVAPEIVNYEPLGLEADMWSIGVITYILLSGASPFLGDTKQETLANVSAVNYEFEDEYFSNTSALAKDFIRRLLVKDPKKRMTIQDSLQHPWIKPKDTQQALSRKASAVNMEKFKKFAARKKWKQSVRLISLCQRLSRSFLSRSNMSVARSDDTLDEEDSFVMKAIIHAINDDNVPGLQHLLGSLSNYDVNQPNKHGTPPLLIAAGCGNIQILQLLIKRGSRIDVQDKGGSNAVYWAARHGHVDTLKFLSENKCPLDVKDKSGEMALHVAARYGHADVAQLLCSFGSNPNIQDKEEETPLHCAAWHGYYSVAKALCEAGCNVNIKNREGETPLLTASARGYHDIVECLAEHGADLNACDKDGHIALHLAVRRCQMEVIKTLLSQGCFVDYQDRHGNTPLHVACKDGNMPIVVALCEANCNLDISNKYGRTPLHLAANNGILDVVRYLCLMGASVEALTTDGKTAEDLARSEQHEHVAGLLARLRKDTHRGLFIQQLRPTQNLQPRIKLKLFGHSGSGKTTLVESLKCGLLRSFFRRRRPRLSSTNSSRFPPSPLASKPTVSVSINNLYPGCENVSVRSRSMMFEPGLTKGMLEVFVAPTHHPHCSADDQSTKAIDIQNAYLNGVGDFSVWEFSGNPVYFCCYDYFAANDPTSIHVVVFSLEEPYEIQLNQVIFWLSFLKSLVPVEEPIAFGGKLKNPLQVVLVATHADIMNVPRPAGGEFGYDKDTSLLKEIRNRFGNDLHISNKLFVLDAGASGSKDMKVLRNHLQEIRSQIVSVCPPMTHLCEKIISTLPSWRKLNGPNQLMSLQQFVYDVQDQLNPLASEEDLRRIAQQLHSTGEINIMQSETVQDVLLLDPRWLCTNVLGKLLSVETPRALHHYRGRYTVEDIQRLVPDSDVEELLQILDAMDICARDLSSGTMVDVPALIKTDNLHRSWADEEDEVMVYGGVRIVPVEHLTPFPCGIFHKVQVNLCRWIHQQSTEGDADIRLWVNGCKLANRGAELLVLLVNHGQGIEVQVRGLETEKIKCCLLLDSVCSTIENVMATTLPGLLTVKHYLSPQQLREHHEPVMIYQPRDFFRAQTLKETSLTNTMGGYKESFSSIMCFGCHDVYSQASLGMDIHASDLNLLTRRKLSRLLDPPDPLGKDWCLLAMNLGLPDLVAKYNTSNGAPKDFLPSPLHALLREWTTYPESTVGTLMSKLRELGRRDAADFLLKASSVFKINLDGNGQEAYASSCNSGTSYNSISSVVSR
Sequence of Mitogen-activated protein kinase 8 (P45983 whole entry): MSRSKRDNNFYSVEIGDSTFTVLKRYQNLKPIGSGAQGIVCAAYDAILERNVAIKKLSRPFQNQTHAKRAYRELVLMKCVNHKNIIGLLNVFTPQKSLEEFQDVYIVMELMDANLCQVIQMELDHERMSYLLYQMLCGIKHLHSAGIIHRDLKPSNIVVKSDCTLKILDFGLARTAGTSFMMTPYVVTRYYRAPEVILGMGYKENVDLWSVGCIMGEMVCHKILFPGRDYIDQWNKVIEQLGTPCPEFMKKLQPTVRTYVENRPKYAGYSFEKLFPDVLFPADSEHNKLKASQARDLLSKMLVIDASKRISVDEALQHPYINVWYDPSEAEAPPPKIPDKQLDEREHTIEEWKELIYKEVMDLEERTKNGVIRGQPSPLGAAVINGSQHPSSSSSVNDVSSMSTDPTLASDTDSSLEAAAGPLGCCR
Sequence of Bone morphogenetic protein receptor type-1B (O00238 whole entry): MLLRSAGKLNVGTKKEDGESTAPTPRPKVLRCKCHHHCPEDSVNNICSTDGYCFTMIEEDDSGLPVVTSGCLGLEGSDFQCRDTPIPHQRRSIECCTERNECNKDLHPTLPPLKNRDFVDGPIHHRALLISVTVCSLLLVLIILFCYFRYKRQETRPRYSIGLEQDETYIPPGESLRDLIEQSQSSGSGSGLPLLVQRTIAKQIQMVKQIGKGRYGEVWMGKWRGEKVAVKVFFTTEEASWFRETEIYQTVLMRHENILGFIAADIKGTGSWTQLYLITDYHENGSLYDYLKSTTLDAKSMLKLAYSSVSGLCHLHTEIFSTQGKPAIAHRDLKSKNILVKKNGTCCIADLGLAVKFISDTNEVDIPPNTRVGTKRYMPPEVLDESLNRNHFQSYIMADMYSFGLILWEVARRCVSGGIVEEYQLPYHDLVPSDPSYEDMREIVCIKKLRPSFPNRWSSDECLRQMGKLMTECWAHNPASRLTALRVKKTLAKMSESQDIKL

In the case of `N#Cc1cccc(-c2c[nH]c3ncnc(N4CCOCC4)c23)c1`, in assay [1], the % of inhibition is 5%. This molecule registered a % of control in assay [2] of 100%.
Take `CCN(CC)CCCCNc1ncc2cc(-c3cc(OC)cc(OC)c3)c(NC(=O)NC(C)(C)C)nc2n1`: the % of control in assay [3] stood at 100%.
As to `CNC(=O)Nc1ccc(-c2nc(N3CC4CCC(C3)O4)c3cnn(C4CCC5(CC4)OCCO5)c3n2)cc1`, the % of inhibition in assay [4] worked out at 4%. Also, the % of control in [5] was 12%.
Turning to `C=CC(=O)Nc1cc(-n2c(=O)ccc3cnc4ccc(-c5ccc(NS(C)(=O)=O)cc5)cc4c32)ccc1C`, the % of control in [6] (at 1 µM) turned out to be 96%; in assay [6] (at 10 µM) it was 61%.
On to `CN(C)C/C=C/C(=O)Nc1ccc(C(=O)N2CCCC(Nc3ncc(Cl)c(-c4c[nH]c5ccccc45)n3)C2)cc1` (stereo unspecified), for which the % of control in assay [7] came out at 89%; in assay [8], 91%.
For the molecule `COc1cc(Nc2nc(C)cc(-c3cnn4nc(OC)ccc34)n2)cc(C(F)(F)F)c1`, the % of control in assay [9] is 91%.
As to `Cc1cc(C)cc([C@@H]2c3cc(C)ccc3NC(=O)CN2C(=O)c2ccc(Br)s2)c1`, in assay [10], the % of inhibition was -5%.

Values taken from ChEMBL document CHEMBL5465560, “Selectivity Literature for EUbOPEN Chemogenomic Library” (2024).
